# Assay results published in ChEMBL document CHEMBL1158860, “New Diosgenin Glycosides from Costus afer” (J Nat Prod, 1997).
# The source made the active and inactive calls. The rule behind the calls is not given here.
# System: HL-60
# Assay: Potentiation of cisplatin cytotoxicity against human HL60 cells
# Assay type: functional, cell-based
row,Compound,Activity
1,CC(=O)O[C@@H]1[C@@H](O)[C@@H](O)[C@H](O[C@H]2[C@H](O[C@H]3CC[C@@]4(C)C(=CC[C@H]5[C@@H]6C[C@@H]7O[C@]8(CC[C@@H](C)CO8)[C@@H](C)[C@@H]7[C@@]6(C)CC[C@@H]54)C3)O[C@H](CO)[C@@H](O[C@@H]3OC[C@](O)(CO)[C@H]3O)[C@@H]2O)O[C@H]1C,inactive
2,C[C@@H]1CC[C@@]2(OC1)O[C@H]1C[C@H]3[C@@H]4CC=C5C[C@@H](O[C@@H]6O[C@H](CO)[C@@H](O[C@@H]7O[C@@H](C)[C@H](O)[C@@H](O)[C@H]7O)[C@H](O)[C@H]6O[C@@H]6O[C@@H](C)[C@H](O)[C@@H](O)[C@H]6O)CC[C@]5(C)[C@H]4CC[C@]3(C)[C@H]1[C@@H]2C,inactive
3,C[C@@H]1CC[C@@]2(OC1)O[C@H]1C[C@H]3[C@@H]4CC=C5C[C@@H](O[C@@H]6O[C@H](CO)[C@@H](O[C@@H]7OC[C@](O)(CO)[C@H]7O)[C@H](O)[C@H]6O)CC[C@]5(C)[C@H]4CC[C@]3(C)[C@H]1[C@@H]2C,inactive
4,C[C@@H]1CC[C@@]2(OC1)O[C@H]1C[C@H]3[C@@H]4CC=C5C[C@@H](O[C@@H]6O[C@H](CO)[C@@H](O[C@@H]7OC[C@](O)(CO)[C@H]7O)[C@H](O)[C@H]6O[C@@H]6O[C@@H](C)[C@H](O)[C@@H](O)[C@H]6O)CC[C@]5(C)[C@H]4CC[C@]3(C)[C@H]1[C@@H]2C,inactive
